One data set has as its system T1, endogenous mouse FAP.
T1 construct: from tissue; host or cells: mouse serum/plasma (ob/ob and C57BL/6J mice)
Nature of the data set: Acute study using ob/ob mice: plasma FAP activity. In kind it is in vivo. The settings on record: single oral dose 20 or 50 mg/kg, in 1 h, maintained up to 9 h.

The test system of another data set is T2, FAP.
T2 construct: from tissue; host or cells: mouse serum/plasma (ob/ob and C57BL/6J mice)
Nature of the data set: In vivo study using CDAHFD mice: FAP activity at week 14. The arrangement: species or system C57BL/6J mice. The settings on record: 10 and 30 mg/kg p.o. for 10 weeks, vs vehicle. The procedure: C57BL/6J mice were fed normal chow diet (n = 5) or choline-deficient, L-amino acid-defined, high-fat diet (CDAHFD) for 4 weeks to induce NASH (n = 8–10/group). […] (a) Relative FAP activity was assessed by FRET-quench and serum FGF21 level at week 14. […] (c) Steatosis scores ranged from 0 to 3 (normal = 0, minimal = 1, moderate = 2, marked = 3) were determined. Hepatic steatosis and fibrosis (Picrosirius red stain) were analyzed in a blinded manner or by digital image analyzer. (d–e) Histological evaluations of liver tissue were performed in each group. Paraffin-embedded liver sections were stained with H&E (d) and Sirius red (e). Representative photographs of each group were presented. Images were obtained at 100x (Scale bar = 50 µm).
Male C57BL/6J mice (5 weeks of age) were fed with a CDAHFD consisting of 60% kcal fat and 0.1% methionine. […] For the CDAHFD model, compound treatments were started at the beginning of week 4 on the diet and continued until week 14. […] Liver tissue was then collected. All other measurements were done similarly as described above. Staining was performed using H&E and Picrosirius red as described previously. Areas of positive Sirius red were quantified by computer-based morphometric analysis.

For a further data set, the system named is ob/ob mice. Nature of the data set: Acute study using ob/ob mice: blood glucose and intact hFGF21. The following applies: for nonfasting blood glucose level, average: 3 h after administration.
Data set [1] is described as follows: Plasma protein binding, rat. In kind it is in vitro ADME. The following applies: rat (R), read-out: Plasma protein binding (% bound) (converted). How it is done: Protein binding was conducted as described. Compound solutions prepared in DMSO were diluted in phosphate buffer (final concentration: 1 µg/mL), and added into human plasma (total volume: 1 mL). Aliquots were then transferred in duplicate to: (i) a final concentration plate that was immediately quenched with 23.6 ng/mL internal standard (IS, chlorpropamide) in ACN, (ii) a degradation control, which was placed in a water bath at 37℃ for 4 h, and (iii) ultracentrifuge tubes, which were centrifuged for 5 min at 4℃ (14,000 rpm). All reactions were stopped by the addition of ACN containing 23.6 ng/mL chlorpropamide. The samples were subjected to LC–MS/MS analysis.

For the next data set, the target named is T3, serum FAP (Mus musculus, UniProt P97321).
T3 construct: from tissue; host or cells: mouse serum/plasma (ob/ob and C57BL/6J mice)
Nature of the data set: IC50 on serum FAP, mice. In kind it is biochemical.

The nature of another data set: Plasma stability, mouse. In kind it is in vitro ADME. The following applies: pH 7.4, mouse (M), read-out: Plasma stability (% remaining at 60 min). How it is done: (§1) Aliquots were then transferred in duplicate to: (i) a final concentration plate that was immediately quenched with 23.6 ng/mL internal standard (IS, chlorpropamide) in acetonitrile (ACN) or (ii) tubes, which were centrifuged for 5 min at 4℃ (14,000 rpm). The samples were subjected to LC–MS/MS analysis on an AB Sciex 4000 Q Trap hybrid triple quadrupole linear ion-trap MS (AB Sciex, Framingham, MA) coupled to an Agilent 1200 HPLC (Agilent Tech. Santa Clara, CA) with a reverse-phase Kinetex XB-C18 column (2.1 × 100 mm, 2.6 µm; Phenomenex). Mobile phases were comprised of 0.1% formic acid (FA) in water (A) and 0.1 FA in ACN (B). Data analysis was performed using […] (Ver. 1.6.1).

A short description of data set [2]: Plasma protein binding, mouse. The following applies: mouse (M), read-out: Plasma protein binding (% bound) (converted). In kind it is in vitro ADME.
For a further data set, the target named is T4, PREP (Homo sapiens, UniProt P48147).
T4 construct: purchased R&D Systems 4308-SE
Nature of the data set: PREP activity, fluorometric assay with AMC substrate. In kind it is biochemical. The procedure: Recombinant human PREP (hPREP) (catalog no. 4308-SE), hDPP2/7 (catalog no. 3438-SE), hDPP9 (catalog no. 5419-SE), hFAP (catalog no. 3715-SE), and hDPP4 (catalog no. 9168-SE) proteins were from R&D Systems (Minneapolis, MN). Human FGF21 (catalog no. CRF159C) was from Cell Science (Newburyport, MA).
FAP enzyme activities were assayed in 20 mM Tris/HCl, 0.1 M NaCl, 1 mM EDTA (pH 8.0) in the presence of 40 μM Suc-Gly-Pro-Leu-Gly-Pro-AMC (#I-1350.0100, BACHEM, Bubendorf, Switzerland) and hFAP in a total volume of 100 µL. […] The inhibitor concentrations ranged from 100 μM to 0.03 nM, and its IC50 values were computed with commercially available curve-fitting programs such as the SigmaPlot. Other protease activities were determined in a similar manner.

Another data set can be described thus: in vivo. The following applies: cynomolgus monkey, plasma, inhaled or intranasal, 50 mg/kg.
Data set [3] in a line: Microsomal stability, human. The settings on record: liver microsomes, pH 7.4, 0.5 mg/mL, NADPH, read-out: Microsomal stability (% remaining at 60 min). Type of data set: in vitro ADME. The procedure: as §1

Where two headings read alike, the source gives them in different places.

T3 sequence (P97321 24-761 limits assumed): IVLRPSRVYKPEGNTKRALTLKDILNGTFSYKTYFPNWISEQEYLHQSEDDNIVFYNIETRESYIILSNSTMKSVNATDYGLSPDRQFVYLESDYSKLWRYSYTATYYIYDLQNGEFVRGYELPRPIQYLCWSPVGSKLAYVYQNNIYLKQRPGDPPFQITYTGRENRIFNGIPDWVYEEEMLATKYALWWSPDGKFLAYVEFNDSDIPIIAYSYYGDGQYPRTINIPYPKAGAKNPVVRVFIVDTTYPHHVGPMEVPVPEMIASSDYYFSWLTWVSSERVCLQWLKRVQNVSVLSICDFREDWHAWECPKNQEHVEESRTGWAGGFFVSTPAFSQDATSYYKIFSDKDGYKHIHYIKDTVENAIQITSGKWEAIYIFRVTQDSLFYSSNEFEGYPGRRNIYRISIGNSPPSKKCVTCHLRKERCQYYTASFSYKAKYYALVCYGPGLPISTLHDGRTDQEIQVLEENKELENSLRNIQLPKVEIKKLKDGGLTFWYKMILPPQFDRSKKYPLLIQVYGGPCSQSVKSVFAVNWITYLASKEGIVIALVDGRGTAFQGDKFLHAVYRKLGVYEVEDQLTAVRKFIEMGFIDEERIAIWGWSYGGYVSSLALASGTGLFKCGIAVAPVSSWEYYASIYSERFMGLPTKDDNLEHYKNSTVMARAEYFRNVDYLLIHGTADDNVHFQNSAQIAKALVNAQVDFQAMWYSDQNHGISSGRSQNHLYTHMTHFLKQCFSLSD
T4 sequence (P48147 whole entry): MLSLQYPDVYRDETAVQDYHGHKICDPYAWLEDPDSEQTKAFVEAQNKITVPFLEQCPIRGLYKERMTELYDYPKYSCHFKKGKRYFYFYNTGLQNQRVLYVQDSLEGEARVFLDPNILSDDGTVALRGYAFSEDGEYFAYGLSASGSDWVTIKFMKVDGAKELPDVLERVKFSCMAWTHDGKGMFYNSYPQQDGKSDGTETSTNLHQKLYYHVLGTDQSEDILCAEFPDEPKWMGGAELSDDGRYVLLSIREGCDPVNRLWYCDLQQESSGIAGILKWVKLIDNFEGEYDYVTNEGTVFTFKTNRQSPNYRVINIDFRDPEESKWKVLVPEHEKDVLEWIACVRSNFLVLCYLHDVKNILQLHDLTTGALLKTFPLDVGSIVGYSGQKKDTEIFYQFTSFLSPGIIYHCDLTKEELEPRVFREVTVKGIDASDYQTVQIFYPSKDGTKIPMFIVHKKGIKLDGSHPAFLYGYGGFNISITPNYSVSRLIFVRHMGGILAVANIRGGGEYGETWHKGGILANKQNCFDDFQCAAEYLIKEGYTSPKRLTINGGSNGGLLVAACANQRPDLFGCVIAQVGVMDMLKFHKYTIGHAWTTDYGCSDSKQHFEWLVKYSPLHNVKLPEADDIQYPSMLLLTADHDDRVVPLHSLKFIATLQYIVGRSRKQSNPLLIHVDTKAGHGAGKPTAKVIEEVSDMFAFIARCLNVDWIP

By IC50 is commonly meant the concentration at which inhibition is half-maximal. Broadly, the fraction remaining is what is left of the initial amount, in per cent. A word on the Tmax: it is the time at which the peak concentration occurs. On to `N#Cc1ccc(Cc2nc(C(=O)NCC(=O)N3CC(F)(F)C[C@H]3C#N)cs2)cc1` [BR103354, (S)-N-(2-(2-cyano-4,4-difluoropyrrolidin-1-yl)-2-oxoethyl)-2-(4-cyanobenzyl)thiazole-4-carboxamide], for which the “inhibition of plasma FAP activity” value in the data set on endogenous mouse FAP was “more than 70%”. Besides, the FAP activity entry with FAP is given as “inhibited in a dose-dependent manner”. Besides, the “nonfasting blood glucose level, average” value with ob/ob mice (20 mg/kg p.o. + hFGF21 0.1 mg/kg i.p.) came to 178 mg/dL; with ob/ob mice (50 mg/kg p.o. + hFGF21 0.1 mg/kg i.p.), 154 mg/dL. Moreover, the “decrease of blood glucose AUC” value with ob/ob mice (20 or 50 mg/kg p.o. + hFGF21 0.1 mg/kg i.p.) is on record as 40–45%. Besides, the “levels of intact FGF21 in plasma” value in the data set with ob/ob mice (co-administered with hFGF21 0.1 mg/kg, until 3 h) is “increased levels of intact FGF21 in plasma until 3 h”. Moreover, the “levels of intact FGF21” value in the data set with ob/ob mice (co-administered with hFGF21, after 6 h of administration) is reported as “lower than 10 ng/mL”. The fraction unbound at 1 µg/mL in data set [1] was 0.4; in [2] it was 0.22. Also, the IC50 on serum FAP (mice, monkeys and humans together, read-out: serum FAP IC50 values, all three species) was 27 to 31 nM; at serum FAP (read-out: Serum FAP IC50 (nM): Mouse), 31 nM; on PREP, 387 nM. Also, the fraction remaining at 1 h, 1 µM in “Plasma stability, mouse” was determined as 94%; in data set [3], 95%. For the same compound, the Tmax in “in vivo” was found to be 3 h.

These data come from PMC7718273 (Scientific Reports, 2020).
